Assay results from US11344493B2, “Cleavable surfactant” (FIRMENICH SA, priority 2017, dated 2022).
Values belong to the compound of their own block, whether it stands above or below them.

What was measured:
[1] = Solubilizing capacity of imines for a model perfume in water; assay type: physicochemical; conditions: for Fragrance/Surfactant Weight Ratio: transparent solution of model perfume in water; for Imine: minimal value of surfactant necessary to obtain a transparent solution: water 9.0 g and model perfume 0.3 g
Method: Water (9.0 g) and the model perfume composition of Table 8 (0.3 g) are mixed under gentle agitation. The resulting solution is turbid. Imines of formula (I) are then added until a transparent solution was obtained. The ratio fragrance to surfactant indicates the solubilizing capacity of the imines wherein higher ratio indicates higher solubilizing capacity of the imine.

[2] = Hydrolysis of imines in deuterium oxide in the presence of co-surfactants; assay type: physicochemical; conditions: c0 10 mM
Method: The influence of the presence of (co-)surfactants on the hydrolysis of imines according to formula (I) was investigated by ^1H NMR spectroscopy in deuterium oxide (0.7 mL) as described in Example 5 with an initial imine concentration of 10 mM and 4 wt % of an additional surfactant. The following surfactants were tested: sodium dodecyl sulfate (SDS), sodium laureth sulphate (Texapon® NSO IS; trademark from BASF and commercially available from BASF), hexadecyl-trimethyl-ammonium bromide (cetrimonium bromide), 2,5,8,11,14,17,20,23,26,29,32,35,38,41,44,47,50,53,56,59,62,65,68,71,74-pentacosaoxahexaheptacontan-76-yl stearate (PEG25Monostearate), (polyethylene glycol)9,10 4-(1,1,3,3-tetramethylbutyl)-phenyl ether (Triton® X-100; trademark from Dow Chemical and commercially available from Sigma Aldrich), polyoxyethylene 20 sorbitan monooleate (Tween® 80; trademark from Uniquema, ICI Americas Inc. and commercially available from Sigma Aldrich).

[3] = Surface tension of aqueous solutions (Kruss DSA 10 MK2 Drop Shape Analysis); assay type: physicochemical; conditions: for surface tension / surface activity: aqueous solution 1% wt, FIG. 2; for critical concentration (CMC) and self-aggregation in micelles: surface tension as function of concentration, FIG. 3
Method: The surface activity of aqueous solutions of typical well known surfactants at concentration of 1% wt was measured by Kruss DSA 10 MK2 Drop Shape Analysis System. In parallel, the HLB value of the surfactant molecules was calculated by using ECL model. FIG. 2 represented the correlation between the surface tension and the calculated HLB values (black circles). The curve reached a saturation value at HLB 18, which was the limit of the HLB range for the compound of formula (I). All molecules having HLB higher than 18 are not part of the present invention due to a strong water solubility and an insufficient surface activity.
The surface tension of compounds of formula (I): Imine F, Imine D, Imine E, Imine B and of comparative Imine C1, was measured as well and the data were added to FIG. 2 (grey squares). […] The HLB calculated for this molecule was higher than 18 and therefore out of the limits fixed in the present invention.
As a comparative example, the compound Imine C7 reported in Polymer 2014, vol. 55, pages 1443-1451 was synthetized (see Example 3 g)) and surface tension of the aqueous solution of 1% wt of this molecule was measured. The data was included in FIG. 2 (black triangle).
The surface tension as function of the concentration of Imine compounds F and C1 was measured and presented on FIG. 3.

[4] = assay type: physicochemical; conditions: pH 2.6
Excerpt: Compounds according to formula (I) were included into citral containing microemulsions formed by mixing a buffer solution at pH=2.6 (48% citric acid and 3.2% NaOH in water), Tween® 80 (trademark from Uniquema, ICI Americas Inc. and commercially available from Sigma Aldrich) and citral in the quantities listed in Table 10. […] The two solutions contained equimolar amounts of citral. At different time intervals the different formulations (0.305 g) were extracted by adding an aqueous solution of NaCl (15%, 2.745 g) and iso-octane (3.050 g). The mixtures were stirred (at 500 rpm for 10 min) and left equilibrating (5 min) to separate into two well distinguished phases. The phases were carefully separated and the organic phase (20 μL) analysed by GC/MS. GC/MS analyses were carried out on an Agilent 6890N Network GC system and an Agilent 5973 Network MS. […] Citral was analyzed by single ion monitoring and the extracted citral concentrations were determined by external standard calibration. […] The citral concentration measured in the extraction experiments as a function of time (FIG. 1), were fitted with Equation 2. The degradation rates, as well as the initial maximum citral concentrations were determined.

[5] = Hydrolysis of imines in model formulation with Texapon NSO IS; assay type: physicochemical; conditions: Texapon NSO IS 4 wt % in deuterium oxide, c0 10 mM
Method: To investigate the hydrolysis of the imines according to formula (I), a simple model formulation in deuterium oxide was prepared. Freeze-dried Texapon® NSO IS (trademark from BASF and commercially available from BASF) (4 wt %) was dissolved in deuterium oxide (95 wt %) at room temperature. The imine according to formula (I) (1 wt %) was added to the formulation at the beginning of the experiment (t=0), the pH was measured and the NMR measurements were started.

[6] = Kinetics of hydrolysis of imines in deuterium oxide (1H NMR); assay type: physicochemical; conditions: for order of hydrolysis kinetics: t1/2 versus initial concentration
Method: (§1) The compounds according to formula (I) at different concentrations (c=10 . . . 500 mM) were individually dissolved in deuterium oxide (0.7 mL) at room temperature. The pD was measured and the hydrolysis of the imine was followed by ^1H NMR until an equilibrium was reached. The imine concentration at equilibrium was determined. Reactions with constant pD were either performed at unmodified pD (basic) or in a 4-(2-hydroxyethyl)-1-piperazineethanesulfonic acid (HEPES) buffer (slightly acidic). The data summarized in Table 3 were obtained from the measurements.

[7] = Equilibration of imines in deuterium oxide (1H NMR); assay type: physicochemical; conditions: conditions of Table 3
Method: as §1

[8] = Hydrolysis of imines in model formulation with Hostapur SAS 60 and Genapol LA 70; assay type: physicochemical; conditions: Hostapur SAS 60 7 wt % and Genapol LA 70 17 wt % in deuterium oxide, c0 10 mM, pD 10.4
Method: A second aqueous surfactant solution was prepared by dissolving freeze-dried sodium C14-17 sec-alkyl sulphonate (Hostapur® SAS 60; trademark from Clariant GmbH and commercially available from Clariant GmbH; 7 wt %) and freeze-dried ethoxylated C12-16 alcohols (Genapol® LA 70; trademark from Clariant GmbH and commercially available from Clariant GmbH; 17 wt %) in deuterium oxide (75 wt %) at room temperature. Then, sodium deuteroxide 40% in deuterium oxide was added until reaching a pH of 10. The imine according to formula (I) (1 wt %) was added to the formulation at the beginning of the experiment (t=0), the pH was measured and the NMR measurements were started.

SMILES: COCCOCCOCCOCCOCCOCCOCCOCCOCCOCCOCCOCCOCCOCCOCCOCCOCCOCCOCCOCC(C)OCC(C)OCC(C)N=CC=C(C)CCC=C(C)C (mixture of isomers) [Imine D]
- Fragrance/Surfactant Weight Ratio [1]: 5.2
- Imine: minimal value of surfactant necessary to obtain a transparent solution [1]: 14.36%
- concentration at equilibrium (ceq) ([2]; co-surfactant Certrimmonium bromide 4 wt %, pD 10.5): 4750 µM
- concentration at equilibrium (ceq) ([2]; co-surfactant PEG25Monostearate 4 wt %, pD 10.5): 2790 µM
- concentration at equilibrium (ceq) ([2]; co-surfactant SDS 4 wt %, pD 10.5): 8930 µM
- concentration at equilibrium (ceq) ([2]; co-surfactant Texapon NSO IS 4 wt %, pD 10.5): 5960 µM
- concentration at equilibrium (ceq) ([2]; co-surfactant none, pD 10.5): 2950 µM
- surface tension / surface activity [3]: strong surface activity

SMILES: CCCCCCCC=CCCC=NC(C)COC(C)COC(C)COC(C)COC(C)COC(C)COC(C)COC(C)COC(C)COC(C)COCCOCCOCCOCCOCCOCCOCCOCCOCCOCCOCCOCCOCCOCCOCCOCCOCCOCCOCCOCCOCCOCCOCCOCCOCCOCCOCCOCCOCCOCCOCCOC (mixture of isomers) [Imine G]
- Fragrance/Surfactant Weight Ratio [1]: 5.3
- Imine: minimal value of surfactant necessary to obtain a transparent solution [1]: 14.68%

SMILES: COCCOCCOCCOCCOCCOCCOCCOCCOCCOCCOCCOCCOCCOCCOCCOCCOCCOCCOCCOCCOCCOCCOCCOCCOCCOCCOCCOCCOCCOCCOCCOCC(C)OCC(C)OCC(C)OCC(C)OCC(C)OCC(C)OCC(C)OCC(C)OCC(C)OCC(C)N=CC=C(C)CCC=C(C)C (mixture of isomers) [Imine E]
- decrease of the citral degradation rate [4]: 1.53 times
- Fragrance/Surfactant Weight Ratio [1]: 9.3
- Imine: minimal value of surfactant necessary to obtain a transparent solution [1]: 23.14%
- concentration at equilibrium (ceq) ([2]; co-surfactant PEG25Monostearate 4 wt %, pD 10.4): 7500 µM
- concentration at equilibrium (ceq) ([2]; co-surfactant PEG25Monostearate 4 wt %, phosphate buffer (pD 4.4)): 6400 µM
- concentration at equilibrium (ceq) ([2]; co-surfactant none, pD 10.4): 2800 µM
- surface tension / surface activity [3]: strong surface activity

SMILES: CCCCCCC(C=NC(C)COC(C)COC(C)COC(C)COC(C)COC(C)COC(C)COC(C)COC(C)COC(C)COCCOCCOCCOCCOCCOCCOCCOCCOCCOCCOCCOCCOCCOCCOCCOCCOCCOCCOCCOCCOCCOCCOCCOCCOCCOCCOCCOCCOCCOCCOCCOC)=Cc1ccccc1 (mixture of isomers) [Imine C]
- Fragrance/Surfactant Weight Ratio [1]: 4.0
- Imine: minimal value of surfactant necessary to obtain a transparent solution [1]: 11.43%
- half-time of hydrolysis (t1/2) ([5]; pD 10.5): 17.5 h
- order of hydrolysis kinetics [6]: pseudo-zero order kinetics

SMILES: CCCCCCC(C=NCCc1ccc(OCCOCCOCCOCCOCCOCCOCCOCCOCCOCCOCCOC)cc1)=Cc1ccccc1 [Imine A]
- half-time of hydrolysis (t1/2) ([5]; pD 10.6): 9.2 h
- half-time of hydrolysis (t1/2) ([6]; c0 10 mM, pD 10.1): 59.5 h
- initial rate of hydrolysis (v0) ([6]; c0 10 mM, pD 10.1): 1.3 10^−3 mM/min
- half-time of hydrolysis t1/2 (est.) [8]: 42.5 h

SMILES: CCCCCCCC=CCCC=NC(C)COC(C)COC(C)COCCOCCOCCOCCOCCOCCOCCOCCOCCOCCOCCOCCOCCOCCOCCOCCOCCOCCOCCOC (mixture of isomers) [Imine F]
- Fragrance/Surfactant Weight Ratio [1]: 2.7
- Imine: minimal value of surfactant necessary to obtain a transparent solution [1]: 7.92%
- surface tension / surface activity [3]: strong surface activity
- critical concentration (CMC) and self-aggregation in micelles [3]: existence of critical concentration (CMC)

Results, then the compound that gave them:

- stability of the imine at equilibrium [7]: mostly cleaved
- surface tension / surface activity [3]: high surface tension value
- critical concentration (CMC) and self-aggregation in micelles [3]: absence of CMC and self-aggregation
SMILES: COCCOCCOCCOCCOCCOCCOCCOCCOCCOCCOCCOCCOCCOCCOCCOCCOCCOCCOCCOCC(C)OCC(C)OCC(C)N=Cc1ccc(O)c(OC)c1 (mixture of isomers) [Imine C1, reference compound]

- half-time of hydrolysis (t1/2) ([5]; pD 10.5): 4.3 h
- initial rate of hydrolysis (v0) ([5]; pD 10.5): 35.4 10^−3 mM/min
- half-time of hydrolysis ([6]; at all concentrations): around 5 h
- half-time of hydrolysis (t1/2) ([6]; c0 10 mM, pD 10.5): 4.56 h
- initial rate of hydrolysis (v0) ([6]; c0 10 mM, pD 10.5): 14.8 10^−3 mM/min
- half-time of hydrolysis (t1/2) ([6]; c0 25 mM, pD 10.5): 8.4 h
- initial rate of hydrolysis (v0) ([6]; c0 25 mM, pD 10.5): 23.7 10^−3 mM/min
- half-time of hydrolysis (t1/2) ([6]; c0 100 mM, pD 10.4): 5.28 h
- initial rate of hydrolysis (v0) ([6]; c0 100 mM, pD 10.4): 856 10^−3 mM/min
- order of hydrolysis kinetics [6]: pseudo-first order kinetics
SMILES: CCCCCCC(C=NCCOCCOCCOCCOCCOCCOCCOCCOCCOCCOCCOC)=Cc1ccccc1 [Imine C5]
